The nature of experiment [1]: Michaelis-Menten constant for inhibition of rat kidney pyruvate kinase (PK-K).
A short description of experiment [2]: Inhibition of rat kidney pyruvate kinase (PK-K) at 6.7 mM.
Experiment [3] in a line: Inhibition of rat kidney pyruvate kinase (PK-K).
The nature of experiment [4]: Inhibition of rat liver pyruvate kinase (PK-L) at 3.6 mM.

By Ki is commonly meant the equilibrium dissociation constant of an inhibitor or competing ligand from its target. Low values mean a stronger hold on the target, high ones a looser hold on the target. Take `C[C@@H](OP(=O)(O)OP(=O)(O)O)[C@H]1OC(n2cnc3c(N)ncnc32)[C@H](O)[C@@H]1O` (stereo partly specified): the Ki was 8 mM in experiment [1] and 10.9 mM in experiment [2]. In experiment [3], `CCNc1nc2c(N)ncnc2n1C1O[C@H](COP(=O)(O)OP(=O)(O)O)[C@@H](O)[C@H]1O` (stereo partly specified) registered an inhibition constant (Ki) of 2.9 mM. Same read-out and setting: with `CSc1nc2c(N)ncnc2n1C1O[C@H](COP(=O)(O)OP(=O)(O)O)[C@@H](O)[C@H]1O` (stereo partly specified) the figure was 5 mM; with `CCSc1nc2c(N)ncnc2n1C1O[C@H](COP(=O)(O)OP(=O)(O)O)[C@@H](O)[C@H]1O` (stereo partly specified), 3.9 mM. In experiment [4], `CO[C@H]1[C@@H](O)[C@H](n2cnc3c(N)ncnc32)O[C@@H]1COP(=O)(O)OP(=O)(O)O` [[5-(6-amino-9H-purin-9-yl)-4-hydroxy-3-methoxytetrahydrofuran-2-yl]methyl trihydrogen diphosphate] showed an inhibition constant (Ki) of 7 mM.

These data come from BindingDB's records for doi:10.1021/jm00352a017 (1983).
